Data reported in patent US10350199B2, “3-(1h-pyrrolo[2,3-b]pyridin-2-yl)-1h-indazoles and therapeutic uses thereof” (Samumed, LLC, priority 2015, dated 2019).

What was measured:
Type in all cases: cell-based
[1] = test system: Wnt activity (Sp5-Luc reporter, SW480 colon carcinoma cells); assay: Wnt activity screening assay, Sp5-Luc reporter gene in SW480 cells; settings: Homo sapiens; for inhibition at 10 µM: SW480, read-out: percent inhibition at 10 μM; for EC50: Sp5-Luc reporter, SW480 cells, overnight incubation
Source text: The screening assay for Wnt activity is described as follows. Reporter cell lines can be generated by stably transducing cancer cell lines (e.g., colon cancer) or primary cells (e.g., IEC-6 intestinal cells) with a lentiviral construct that includes a Wnt-responsive promoter driving expression of the firefly luciferase gene.
SW480 colon carcinoma cells were transduced with a lentiviral vector expressing luciferase with a human Sp5 promoter consisting of a sequence of eight TCF/LEF binding sites. SW480 cells stably expressing the Sp5-Luc reporter gene and a hygromycin resistance gene were selected by treatment with 150 μg/mL of hygromycin for 7 days. These stably transduced SW480 cells were expanded in cell culture and used for all further screening activities. […] For Sp5-Luc reporter gene assays, the cells were plated at 4,000 cells/well in 384-well plates with medium containing 1% fetal bovine serum and incubated overnight at 37° C. and 5% CO2. Following incubation, 20 μl of BrightGlo luminescence reagent (Promega) was added to each well of the 384-well assay plates. The plates were placed on an orbital shaker for 2 min and then luminescence was quantified using the Envision (Perkin Elmer) plate reader. Readings were normalized to DMSO only treated cells, and normalized activities were utilized for EC50 calculations using the dose-response log (inhibitor) vs. response -variable slope (four parameters) nonlinear regression feature available in GraphPad Prism 5.0 (or Dotmatics).

SW480 colon cancer cells = assay: Cell viability assay (CellTiter-Blue), SW480 cells, four days; settings: Homo sapiens; for EC50: 96 h, SW480 cell viability, four days, CellTiter-Blue; for inhibition at 10 µM: SW480, read-out: percent inhibition at 10 μM
Procedure: Representative compounds were screened using the following assay procedure to assess the effect on cell viability as described below.
Approximately 2×10^3 SW480 colon cancer cells were seeded into each well and allowed to incubate in the presence or absence of compound for four days at 37° C./5% CO2. Eight replicates of DMSO-treated cells served as controls and cells treated with compound were performed in duplicate.
After incubation, 20 μL of CellTiter-Blue (Promega) was added to each well allowed to incubate for approximately 3 hours. This reagent was a buffered solution which contains resazurin, metabolically active cells were able to reduce rezarurin (blue) into resorufin (pink) which was highly fluorescent. This measured fluorescence was used as a readout for cell viability.

[2] = test system: primary human fibroblasts derived from IPF patients (LL29 cells) treated with TGF-β1; assay: Inhibition of the fibrotic process: αSMA staining in TGF-β1 treated LL29 fibroblasts; settings: Fibroblast; for EC50: 96 h, LL29 cells, TGF-β1 20 ng/mL, 4 days, % αSMA positive cells; for inhibition at 10 µM: read-out: percent inhibition at 10 μM
Procedure: Representative compounds were screened using primary human fibroblasts (derived from IPF patients) treated with TGF-β1 to determine their ability to inhibit the fibrotic process.
LL29 cells are plated at 1,500 cells/well in 80 μL/well F12 medium supplemented with 1% Fetal Bovine Serum. […] Wells treated with TGF-β1 and containing DMSO were used as controls. […] Following incubation for 4 days, SYTOX green nucleic acid stain (Life Technologies [Thermo Fisher Scientific]) was added to the wells at a final concentration of 1 μM and incubated at room temperature for 30 min.

[3] = test system: IL-6 (THP-1 human monocyte cell line); assay: IL-6 inhibition in LPS-stimulated THP-1 cells (HTRF); settings: for EC50: IL-6 inhibition, LPS-stimulated THP-1 cells, HTRF; for inhibition at 10 µM: THP-1, read-out: percentage in parentheses beside EC50 >10 (IL-6 inhibition)
Procedure: THP-1 cells were cultured in basal media with 1% FBS for 24 hours before the start of the assay. […] THP-1 cells were plated at 5000 cells/well in the 384-well plates and incubated at 37° C. for 2 h. 500 ng/mL of LPS was added after 2 hours and cells were incubated for another 22 hours at 37° C. Plates were spun in a centrifuge for 1 minute at […] and a mixture of anti-IL6 XL665, and anti-IL6 Cryptate diluted in reconstitution buffer (Cisbio Inc.) was added to each well. Following incubation for 3 hrs at room temperature, Homogeneous Time-Resolved Fluorescence (HTRF) was measured using the Envision (Perkin Elmer) at 665 nm and […]. The ratio of fluorescence at 665 nm to 620 nm was used as a readout for IL6 quantification. All samples were processed in duplicate. Readings were normalized to DMSO treated cells and normalized activities were utilized for EC50 calculations using the dose-response log (inhibitor) vs. response -variable slope (four parameters) nonlinear regression feature available in GraphPad Prism 5.0 (or Dotmatics).

EC50 [1] [µM]	EC50 (SW480 colon cancer cells) [µM]	EC50 [3] [µM]	Structure (SMILES)	inhibition at 10 µM [1] [%]	inhibition at 10 µM (SW480 colon cancer cells) [%]	EC50 [2] [µM]	inhibition at 10 µM [2] [%]	inhibition at 10 µM [3] [%]
> 10	> 10	> 10	c1ccc(-c2ccc3[nH]nc(-c4cc5c(-c6ccoc6)ccnc5[nH]4)c3c2)nc1 [Compound 336, 3-(4-(Furan-3-yl)-1H-pyrrolo[2,3-b]pyridin-2-yl)-5-(pyridin-2-yl)-1H-indazole]	11	0	> 10	0	45.1
3.85	4.64	0.091	CN(C)Cc1cncc(-c2ccc3[nH]nc(-c4cc5c(-c6cccs6)ccnc5[nH]4)c3c2)c1 [Compound 349, N,N-Dimethyl-1-(5-(3-(4-(thiophen-2-yl)-1H-pyrrolo[2,3-b]pyridin-2-yl)-1H-indazol-5-yl)pyridin-3-yl)methanamine]			0.874		
3.38	1.14	1.57	c1ccc(-c2ccc3[nH]nc(-c4cc5c(-c6cccs6)ccnc5[nH]4)c3c2)nc1 [Compound 364, 5-(Pyridin-2-yl)-3-(4-(thiophen-2-yl)-1H-pyrrolo[2,3-b]pyridin-2-yl)-1H-indazole]			2.2		
> 10	> 10	> 10	CN(C)CCOc1cncc(-c2ccc3[nH]nc(-c4cc5c(-c6ccc(F)cc6)ccnc5[nH]4)c3c2)c1 [Compound 531, 2-((5-(3-(4-(4-Fluorophenyl)-1H-pyrrolo[2,3-b]pyridin-2-yl)-1H-indazol-5-yl)pyridin-3-yl)oxy)-N,N-dimethylethan-1-amine]	2.3	4.1	> 10	15.6	0
> 10	> 10	> 10	c1cc(-c2ccnc3[nH]c(-c4n[nH]c5ccc(-c6cn[nH]c6)cc45)cc23)ccn1 [Compound 571, 5-(1H-Pyrazol-4-yl)-3-(4-(pyridin-4-yl)-1H-pyrrolo[2,3-b]pyridin-2-yl)-1H-indazole]	37	23.8	> 10	28.3	37
> 10	1.15	> 10	Cc1ncc(-c2ccc3[nH]nc(-c4cc5c(-c6ccncc6)ccnc5[nH]4)c3c2)n1C [Compound 573, 5-(1,2-Dimethyl-1H-imidazol-5-yl)-3-(4-(pyridin-4-yl)-1H-pyrrolo[2,3-b]pyridin-2-yl)-1H-indazole]	8		> 10	113	26.4
0.181	0.296	0.663	c1cc(N2CCCCC2)c2cc(-c3n[nH]c4ccc(-c5cn[nH]c5)cc34)[nH]c2n1 [Compound 603, 3-(4-(Piperidin-1-yl)-1H-pyrrolo[2,3-b]pyridin-2-yl)-5-(1H-pyrazol-4-yl)-1H-indazole]			0.304		
> 10	> 10	> 10	COc1cncc(-c2ccc3[nH]nc(-c4cc5c(-c6ccsc6)ccnc5[nH]4)c3c2)c1 [Compound 676, 5-(5-Methoxypyridin-3-yl)-3-(4-(thiophen-3-yl)-1H-pyrrolo[2,3-b]pyridin-2-yl)-1H-indazole]	21	0	7.78		38.4
4.15	3.99	> 10	c1cnc(-c2ccc3[nH]nc(-c4cc5c(-c6ccoc6)ccnc5[nH]4)c3c2)cn1 [Compound 696, 3-(4-(Furan-3-yl)-1H-pyrrolo[2,3-b]pyridin-2-yl)-5-(pyrazin-2-yl)-1H-indazole]			2.48		43.3

More lines, now with the values behind:

Structure (SMILES)	EC50 [1] [µM]	EC50 (SW480 colon cancer cells) [µM]	EC50 [3] [µM]	inhibition at 10 µM [1] [%]	inhibition at 10 µM (SW480 colon cancer cells) [%]	EC50 [2] [µM]	inhibition at 10 µM [2] [%]	inhibition at 10 µM [3] [%]
CC(C)CC(=O)Nc1cncc(-c2ccc3[nH]nc(-c4cc5c(-c6cccs6)ccnc5[nH]4)c3c2)c1 [Compound 338, 3-Methyl-N-(5-(3-(4-(thiophen-2-yl)-1H-pyrrolo[2,3-b]pyridin-2-yl)-1H-indazol-5-yl)pyridin-3-yl)butanamide]	0.332	0.747	0.047			0.58		
CC(C)(C)C(=O)Nc1cncc(-c2ccc3[nH]nc(-c4cc5c(-c6cccs6)ccnc5[nH]4)c3c2)c1 [Compound 344, N-(5-(3-(4-(Thiophen-2-yl)-1H-pyrrolo[2,3-b]pyridin-2-yl)-1H-indazol-5-yl)pyridin-3-yl)pivalamide]	0.215	0.606	0.053			> 10	0	
CC(C)(C)CC(=O)Nc1cncc(-c2ccc3[nH]nc(-c4cc5c(-c6cccs6)ccnc5[nH]4)c3c2)c1 [Compound 352, 3,3-Dimethyl-N-(5-(3-(4-(thiophen-2-yl)-1H-pyrrolo[2,3-b]pyridin-2-yl)-1H-indazol-5-yl)pyridin-3-yl)butanamide]	0.432	0.872	0.073			0.355		
CCCC(=O)Nc1cncc(-c2ccc3[nH]nc(-c4cc5c(-c6cccs6)ccnc5[nH]4)c3c2)c1 [Compound 353, N-(5-(3-(4-(Thiophen-2-yl)-1H-pyrrolo[2,3-b]pyridin-2-yl)-1H-indazol-5-yl)pyridin-3-yl)butyramide]	0.04	1.3	> 10			5.08		37.5
Fc1ccc(-c2ccnc3[nH]c(-c4n[nH]c5ccc(C6=CCNCC6)cc45)cc23)cc1 [Compound 522, 3-(4-(4-Fluorophenyl)-1H-pyrrolo[2,3-b]pyridin-2-yl)-5-(1,2,3,6-tetrahydropyridin-4-yl)-1H-indazole]	3.25	> 10	> 10		19.2	3.86		48.7
NC1CN(c2cncc(-c3ccc4[nH]nc(-c5cc6c(N7CCCCC7)ccnc6[nH]5)c4c3)n2)C1 [Compound 606, 1-(6-(3-(4-(Piperidin-1-yl)-1H-pyrrolo[2,3-b]pyridin-2-yl)-1H-indazol-5-yl)pyrazin-2-yl)azetidin-3-amine]	> 10	> 10	> 10	20.2	10.2	3.62		39.1
c1cc(N2CCCCC2)c2cc(-c3n[nH]c4ccc(-c5cncc(OC6CCCCC6)c5)cc34)[nH]c2n1 [Compound 607, 5-(5-(Cyclohexyloxy)pyridin-3-yl)-3-(4-(piperidin-1-yl)-1H-pyrrolo[2,3-b]pyridin-2-yl)-1H-indazole]	> 10	8.58	> 10	28.4		7.1		20
CN1CCN(c2ccnc3[nH]c(-c4n[nH]c5ccc(-c6cncc(OCc7ccccc7)c6)cc45)cc23)CC1 [Compound 646, 5-(5-(Benzyloxy)pyridin-3-yl)-3-(4-(4-methylpiperazin-1-yl)-1H-pyrrolo[2,3-b]pyridin-2-yl)-1H-indazole]	4.88	4.82	> 10			0.316		37.9
